Data on 1 compound can be found in ChEMBL document CHEMBL5728709, “Indazole derivatives useful as inhibitors of diacylglyceride O-acyltransferase 2” (2021).

The assay deals with T1, Diacylglycerol O-acyltransferase 2 (Homo sapiens, UniProt Q96PD7).
T1 sequence (Q96PD7 whole entry): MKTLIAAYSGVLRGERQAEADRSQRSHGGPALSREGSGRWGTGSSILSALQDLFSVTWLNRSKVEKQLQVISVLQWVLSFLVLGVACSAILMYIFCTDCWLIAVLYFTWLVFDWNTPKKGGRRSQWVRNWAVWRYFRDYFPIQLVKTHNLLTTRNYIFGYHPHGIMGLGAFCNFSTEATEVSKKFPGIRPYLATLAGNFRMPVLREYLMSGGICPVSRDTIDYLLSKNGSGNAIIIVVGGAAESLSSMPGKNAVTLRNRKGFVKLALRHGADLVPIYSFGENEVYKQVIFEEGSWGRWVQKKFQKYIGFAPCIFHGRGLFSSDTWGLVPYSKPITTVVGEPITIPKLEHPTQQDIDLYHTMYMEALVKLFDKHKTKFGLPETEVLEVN
In words: Enzymatic Activity Assay: DGAT2 activity was determined by measuring the amount of enzymatic product triolein (1,2,3-Tri(cis-9-octadecenoyl)glycerol) using the membrane prep mentioned above. The assay was carried out in deep well 384 plates in a final volume of 40 μL at room temperature. The assay mixture contained the following: assay buffer (100 mM Tris.Cl, pH 7.0, 20 mM MgCl2, 5% ethanol), 25 μM of diolein, 10 μM of oleoyl-CoA and 10 ng/μL of DGAT2 membrane.

The IC50 is the point on the concentration scale where inhibition reaches its midpoint. In the case of `CC(C)(C)OC(=O)N1C[C@@H](O)[C@H](NC(=O)c2ccc3c(-c4ccccc4Cl)nn(-c4ccc(F)cc4)c3c2)C1`, the IC50 is 205 nM.
